The record followed here is patent publication US6686443.

Like-named read-outs stand apart in the source and are kept apart here.

For the data set the following is noted: disulfide bond.

As for `COc1ccc(C[C@@H]2NC(=O)CC(C)(C)SSC[C@@H](C(=O)N3CCC[C@H]3C(=O)N[C@@H](CCCNC(=N)N)C(=O)NCC(N)=O)NC(=O)[C@H](CC(N)=O)NC(=O)[C@H](CCC(N)=O)NC(=O)[C@H](Cc3ccccc3)NC2=O)cc1`, the ring closure, conversion (from HSC(Me)2CH2CO-Tyr(Me)-Phe-Gln-Asn-Cys-Pro-Arg-Gly-NH2, 20-membered ring, trans-[Pt(en)2Cl2]2+) was 97%. Under “from Ac-Cys-Gly-Pro-Cys-NH2, 14-membered ring, trans-[Pt(en)2Cl2]2+”, `CC(=O)N[C@H]1CSSC[C@@H](C(N)=O)NC(=O)[C@@H]2CCCN2C(=O)CNC1=O` [Ac-Cys-Gly-Pro-Cys-NH2] returned a ring closure, conversion of 100%. In turn, `CC(=O)N[C@H]1CSSC[C@@H](C(N)=O)NC(=O)[C@H](C)NC(=O)[C@H](C)NC(=O)[C@H](Cc2ccccc2)NC(=O)[C@@H]2CCCN2C1=O` [Ac-Cys-Pro-Phe-Ala-Ala-Cys-NH2] came in with a ring closure, conversion (from Ac-Cys-Pro-Phe-Ala-Ala-Cys-NH2, 20-membered ring, trans-[Pt(en)2Cl2]2+) of 100%. In the case of `CC(=O)N[C@H]1CSSC[C@@H](C(N)=O)NC(=O)[C@H](Cc2ccccc2)NC(=O)[C@@H]2CCCN2C1=O` [Ac-Cys-Pro-Phe-Cys-NH2], where the note is “from Ac-Cys-Pro-Phe-Cys-NH2, 14-membered ring, trans-[Pt(en)2Cl2]2+”, the ring closure, conversion was 97%. Turning to `CC(=O)N[C@@H](CCCCN)C(=O)N1CCC[C@H]1C(=O)N[C@H](C(=O)N[C@H]1CSSC[C@@H](C(=O)N[C@@H](CCCNC(=N)N)C(=O)N[C@@H](CCCCN)C(=O)N[C@H](C(N)=O)[C@@H](C)O)NC(=O)[C@H](Cc2ccccc2)NC(=O)[C@@H]2CCCN2C1=O)[C@@H](C)O` [Ac-Lys-Pro-Thr-Cys-Pro-Phe-Cys-Arg-Lys-Thr-NH2], the ring closure, conversion (from Ac-Lys-Pro-Thr-Cys-Pro-Phe-Cys-Arg-Lys-Thr-NH2, 14-membered ring, trans-[Pt(en)2Cl2]2+) turned out to be 100%. In turn, `CC(=O)N1CCC[C@H]1C(=O)N[C@H](C(=O)N[C@H]1CSSC[C@@H](C(=O)N[C@@H](CCCNC(=N)N)C(=O)N[C@@H](CCCCN)C(N)=O)NC(=O)[C@H](Cc2ccccc2)NC(=O)[C@@H]2CCCN2C1=O)[C@@H](C)O` [Ac-Pro-Thr-Cys-Pro-Phe-Cys-Arg-Lys-NH2] had a ring closure, conversion (from Ac-Pro-Thr-Cys-Pro-Phe-Cys-Arg-Lys-NH2, 14-membered ring, trans-[Pt(en)2Cl2]2+) of 100%.

In turn, `CC[C@H](C)[C@H](NC(=O)[C@H](CC(=O)O)NC(=O)[C@@H](NC(C)=O)[C@@H](C)O)C(=O)N[C@H](C(=O)N[C@H]1CSSC[C@@H](C(=O)N[C@@H](Cc2c[nH]cn2)C(=O)N[C@@H](CCCCN)C(=O)N[C@@H](CC(C)C)C(=O)N[C@@H](Cc2c[nH]cn2)C(N)=O)NC(=O)[C@H](Cc2ccc(O)cc2)NC(=O)CNC1=O)[C@@H](C)O` [Ac-Thr-Asp-Ile-Thr-Cys-Gly-Tyr-Cys-His-Lys-Leu-His-NH2] had a ring closure, conversion (from Ac-Thr-Asp-Ile-Thr-Cys-Gly-Tyr-Cys-His-Lys-Leu-His-NH2, 14-membered ring, trans-[Pt(en)2Cl2]2+) of 100%. Compound `CC(=O)N[C@H](C(=O)N[C@H]1CSSC[C@@H](C(=O)N[C@@H](CCCNC(=N)N)C(N)=O)NC(=O)[C@H](Cc2ccccc2)NC(=O)[C@@H]2CCCN2C1=O)[C@@H](C)O` [Ac-Thr-Cys-Pro-Phe-Cys-Arg-NH2] displayed a ring closure, conversion (from Ac-Thr-Cys-Pro-Phe-Cys-Arg-NH2, 14-membered ring, trans-[Pt(en)2Cl2]2+) of 100%.

As for `CSCC[C@H](NC(=O)[C@H](CC(C)C)NC(=O)[C@@H]1CCCN1C(=O)[C@H](Cc1ccc(O)cc1)NC(=O)[C@H](Cc1ccccc1)NC(=O)[C@@H]1CSSC[C@H](NC(=O)[C@@H]2CCCN2C(=O)[C@@H](N)CCCNC(=N)N)C(=O)N2CCC[C@H]2C(=O)N[C@@H](CCC(N)=O)C(=O)N1)C(N)=O` [H-Arg-Pro-Cys-Pro-Gln-Cys-Phe-Tyr-Pro-Leu-Met-NH2], the ring closure, conversion (from H-Arg-Pro-Cys-Pro-Gln-Cys-Phe-Tyr-Pro-Leu-Met-NH2, 14-membered ring) was found to be 99%.

As to `N=C(N)NCCC[C@H](NC(=O)[C@@H]1CCCN1C(=O)[C@@H]1CSSC[C@H](N)C(=O)N[C@@H](Cc2ccc(O)cc2)C(=O)N[C@@H](Cc2ccccc2)C(=O)N[C@@H](CCC(N)=O)C(=O)N[C@@H](CC(N)=O)C(=O)N1)C(=O)NCC(N)=O` [arginine-vasopressin], the ring closure, conversion (from H-Cys-Tyr-Phe-Gln-Asn-Cys-Pro-Arg-Gly-NH2, 20-membered ring, trans-[Pt(en)2Cl2]2+) came to 100%. Where the note is “from H-Cys-Tyr-Ile-Gln-Asn-Cys-Pro-Leu-Gly-NH2, 20-membered ring, trans-[Pt(en)2Cl2]2+”, `CC[C@H](C)[C@@H]1NC(=O)[C@H](Cc2ccc(O)cc2)NC(=O)[C@@H](N)CSSC[C@@H](C(=O)N2CCC[C@H]2C(=O)N[C@@H](CC(C)C)C(=O)NCC(N)=O)NC(=O)[C@H](CC(N)=O)NC(=O)[C@H](CCC(N)=O)NC1=O` [oxytocin] registered a ring closure, conversion of 98%. Take `NC(=O)CC[C@@H]1NC(=O)[C@H](Cc2ccccc2)NC(=O)[C@H](Cc2ccc(O)cc2)NC(=O)[C@@H](N)CSSC[C@@H](C(=O)O)NC(=O)[C@H](CC(N)=O)NC1=O` [pressinoic acid]: under “from H-Cys-Tyr-Phe-Gln-Asn-Cys-OH, 20-membered ring, trans-[Pt(en)2Cl2]2+”, the ring closure, conversion was 100%.

With “H-Cys-Phe-Gly-Ser-Arg-Ile-Asp-Arg-Ile-Gly-Ala-Gln-Ser-Gly-Met-Gly-Cys-Gly-Arg-Phe-OH”, under “the molecule shown is the open-chain precursor, 53-membered ring, trans-[Pt(en)2Cl2]2+, phosphate buffer pH 6.0, 0.04 mM”, the ring closure, conversion is 100%.

As for somatostatin, the ring closure, conversion (38-membered ring) is 99%.
